Patent US9580390B2, “Indazole compounds as kinase inhibitors and method of treating cancer with same” (University Health Network, priority 2011, dated 2017)

How the values were obtained:
[1] = system: colon cancer cells (HCT116); assay: Cancer cell line growth inhibition (SRB assay); type: cell-based; details: Homo sapiens, HCT-116; HCT116 colon cancer cells, SRB assay; read-out: Cancer Cell Line GI50 Range HCT116
[2] = system: ovarian cancer cells (PA-1); assay: Cancer cell line growth inhibition (SRB assay); type: cell-based; details: PA-1 ovarian cancer cells, SRB assay; read-out: Cancer Cell Line GI50 Range PA-1
[3] = biological target: T1, human PLK4 (Homo sapiens, UniProt O00444); assay: PLK4 inhibition assay (indirect ELISA); type: biochemical; details: 15 μM ATP
T1 construct: amino terminal GST fusion of residues 1-391 of human PLK4; made in house; host or cells: E. coli
T1 sequence (O00444 1-391): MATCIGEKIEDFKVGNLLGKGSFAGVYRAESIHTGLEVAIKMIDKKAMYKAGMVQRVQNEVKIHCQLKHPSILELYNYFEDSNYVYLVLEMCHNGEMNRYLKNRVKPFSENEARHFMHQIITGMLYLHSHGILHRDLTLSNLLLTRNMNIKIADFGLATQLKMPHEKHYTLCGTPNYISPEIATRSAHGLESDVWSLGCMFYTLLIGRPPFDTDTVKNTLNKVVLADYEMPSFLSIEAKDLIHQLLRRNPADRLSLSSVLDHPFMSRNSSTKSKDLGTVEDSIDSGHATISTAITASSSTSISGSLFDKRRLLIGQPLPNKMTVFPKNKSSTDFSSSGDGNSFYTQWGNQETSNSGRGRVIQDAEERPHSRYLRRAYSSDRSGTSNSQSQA
Description: Active PLK4 was purified from an E. coli expression system as an amino terminal GST fusion of residues 1-391 of human PLK4. The protein was purified from clarified cell extracts after induction at 15° C. overnight using glutathione sepharose, gel permeation chromatography, and ion exchange (Resource Q). The resulting protein was dephosphorylated with lambda phosphatase (NEB cat# P0753), and resolved from the phosphatase using gluthione sepharose. The dephosphorylated GST-PLK4 was stored in aliquots at −80° C. until use.
PLK4 activity was measured using an indirect ELISA detection system. Dephosphorylated GST-PLK4 (4 nM) was incubated in the presence of 15 μM ATP (Sigma cat# A7699), 50 mM HEPES-[…] pH 7.4, 10 mM MgCl2, 0.01% Brij 35 (Sigma cat# 03-3170), in a 96 well microtitre plate pre-coated with MBP (Millipore cat#30-011). The reaction was allowed to proceed for 30 minutes, followed by 5 washes of the plate with Wash Buffer (50 mM TRIS-Cl pH 7.4 and 0.2% Tween 20), and incubation for 30 minutes with a 1:3000 dilution of primary antibody (Cell Signaling cat# 9381). The plate was washed 5 times with Wash Buffer, incubated for 30 minutes in the presence of secondary antibody coupled to horse radish peroxidase (BioRad cat# 1721019, 1:3000 concentration), washed an additional 5 times with Wash Buffer, and incubated in the presence of TMB substrate (Sigma cat# T0440). The colourimetric reaction was allowed to continue for 5 minutes, followed by addition of stop solution (0.5 N sulphuric acid), and quantified by detection at 450 nm with either a monochromatic or filter based plate reader (Molecular Devices M5 or Beckman DTX880, respectively).
Compound inhibition was determined at either a fixed concentration (10 μM) or at a variable inhibitor concentration (typically 50 μM to 0.1 μM in a 10 point dose response titration). Compounds were pre-incubated in the presence of enzyme for 15 minutes prior to addition of ATP and the activity remaining quantified using the above described activity assay. The % Inhibition of a compound was determined using the following formula: % Inhibition=100×(1−(experimental value−background value)/(high activity control−background value)). The IC50 value was determined using a non-linear 4 point logistic curve fit (XLfit4, IDBS) with the formula: (A+(B/(1+((x/C)^D)))), where A=background value, B=range, C=inflection point, D=curve fit parameter.

Row | SMILES | GI50 [1] | GI50 [2] | IC50 [3]
1 | Cc1ccccc1CC(=O)Nc1ccc2[nH]nc(-c3ccc(OC4CCN(C)CC4)cc3)c2c1 [Example A92, N-(3-(4-(1-Methylpiperidin-4-yloxy)phenyl)-1H-indazol-5-yl)-2-o-tolylacetamide] | < 100 nM | 100 to 500 nM | < 50 nM
2 | CN1CCC(Oc2ccc(-c3n[nH]c4ccc(NC(=O)C(c5ccccc5F)C5CCCC5)cc34)cc2)CC1 (stereo not shown) [Example A162, 2-cyclopentyl-2-(2-fluorophenyl)-N-(3-(4-((1-methylpiperidin-4-yl)oxy)phenyl)-1H-indazol-5-yl)acetamide] | 100 to 500 nM | 100 to 500 nM | < 50 nM
3 | C[C@@H]1CCCN1[C@@H](C(=O)Nc1ccc2[nH]nc(-c3ccc(N4CCOCC4)cc3)c2c1)c1ccsc1 [Example A97, (R)-2-((R)-2-methylpyrrolidin-1-yl)-N-(3-(4-morpholinophenyl)-1H-indazol-5-yl)-2-(thiophen-3-yl)acetamide] | 100 to 500 nM | 100 to 500 nM | < 50 nM
4 | O=C(Nc1ccc2[nH]nc(-c3ccc(N4CCC(CO)CC4)cc3)c2c1)C(c1ccsc1)N1CCCC1 (stereo not shown) [Example A95, N-(3-(4-(4-(hydroxymethyl)piperidin-1-yl)phenyl)-1H-indazol-5-yl)-2-(pyrrolidin-1-yl)-2-(thiophen-3-yl)acetamide] | < 100 nM | < 100 nM | < 50 nM
5 | O=C(Nc1ccc2[nH]nc(-c3ccc(OC4CCNCC4)c(Cl)c3)c2c1)C(c1ccsc1)N1CCCC1 (stereo not shown) [Example A34, N-(3-(3-chloro-4-(piperidin-4-yloxy)phenyl)-1H-indazol-5-yl)-2-(pyrrolidin-1-yl)-2-(thiophen-3-yl)acetamide] | < 100 nM | – | < 50 nM
6 | CC(C)C[C@H](NC(=O)c1ccc2[nH]nc(-c3ccc(N4C5COCC4CC(O)C5)cc3)c2c1)c1ccccn1 (stereo partly drawn) [Example A306, 3-(4-((1R,5S,7R)-7-hydroxy-3-oxa-9-azabicyclo[3.3.1]nonan-9-yl)phenyl)-N-((S)-3-methyl-1-(pyridin-2-yl)butyl)-1H-indazole-5-carboxamide] | – | – | < 50 nM
7 | C[C@@H]1CN(c2ccc(-c3n[nH]c4ccc(NC(=O)C(c5ccsc5)N5CCCC5)cc34)cc2)C[C@H](C)O1 (stereo partly drawn) [Example A50, N-(3-(4-((2S,6R)-2,6-dimethylmorpholino)phenyl)-1H-indazol-5-yl)-2-(pyrrolidin-1-yl)-2-(thiophen-3-yl)acetamide] | < 100 nM | – | < 50 nM
8 | CCC(NC(=O)c1ccc2[nH]nc(-c3ccc(OC4CCN(C)CC4)cc3)c2c1)C1CCCCC1 (stereo not shown) [Example A69, N-(1-cyclohexylpropyl)-3-(4-((1-methylpiperidin-4-yl)oxy)phenyl)-1H-indazole-5-carboxamide] | 100 to 500 nM | – | < 50 nM
9 | O=C(Nc1ccc2[nH]nc(-c3ccc(OC4CCN(CCF)CC4)cc3)c2c1)C(c1ccsc1)N1CCCC1 (stereo not shown) [Example A102, N-(3-(4-((1-(2-fluoroethyl)piperidin-4-yl)oxy)phenyl)-1H-indazol-5-yl)-2-(pyrrolidin-1-yl)-2-(thiophen-3-yl)acetamide] | < 100 nM | < 100 nM | < 50 nM
10 | COc1ccccc1C(C(=O)Nc1ccc2[nH]nc(-c3ccc(OC4CCN(C)CC4)cc3)c2c1)C1CCCC1 (stereo not shown) [Example A156, 2-cyclopentyl-2-(2-methoxyphenyl)-N-(3-(4-((1-methylpiperidin-4-yl)oxy)phenyl)-1H-indazol-5-yl)acetamide] | 100 to 500 nM | > 500 nM | < 50 nM
11 | CN1CCC(Oc2ccc(-c3n[nH]c4ccc(NC(=O)C(c5ccccn5)C5CCCC5)cc34)cc2)CC1 (stereo not shown) [Example A179, 2-cyclopentyl-N-(3-(4-((1-methylpiperidin-4-yl)oxy)phenyl)-1H-indazol-5-yl)-2-(pyridin-2-yl)acetamide] | – | – | < 50 nM
12 | COCCN1CCC(Oc2ccc(-c3n[nH]c4ccc(C(=O)NC(c5ccsc5)C5CCCC5)cc34)cc2)CC1 (stereo not shown) [Example A155, N-(cyclopentyl(thiophen-3-yl)methyl)-3-(4-((1-(2-methoxyethyl)piperidin-4-yl)oxy)phenyl)-1H-indazole-5-carboxamide] | 100 to 500 nM | 100 to 500 nM | < 50 nM
13 | O=C(Nc1ccc2[nH]nc(-c3ccc4c(c3)OCO4)c2c1)C(c1ccsc1)N1CCCC1 (stereo not shown) [Example A14, N-(3-(benzo[d][1,3]dioxol-5-yl)-1H-indazol-5-yl)-2-(pyrrolidin-1-yl)-2-(thiophen-3-yl)acetamide] | > 500 nM | – | < 50 nM
14 | CN1CCC(C(NC(=O)c2ccc3[nH]nc(-c4ccc(N5CCOCC5)cc4)c3c2)c2ccccc2)CC1 (stereo not shown) [Example A85, N-((1-methylpiperidin-4-yl)(phenyl)methyl)-3-(4-morpholinophenyl)-1H-indazole-5-carboxamide] | < 100 nM | < 100 nM | < 50 nM
15 | CN1CCC(Oc2ccc(-c3n[nH]c4ccc(NC(=O)C(c5ccccc5)C5CCCC5)cc34)cc2)CC1 (stereo not shown) [Example A148, 2-cyclopentyl-N-(3-(4-((1-methylpiperidin-4-yl)oxy)phenyl)-1H-indazol-5-yl)-2-phenylacetamide] | 100 to 500 nM | 100 to 500 nM | < 50 nM
16 | O=C(Nc1ccc2[nH]nc(-c3ccc(N4CCOCC4)c(F)c3)c2c1)C(c1ccsc1)N1CCCC1 (stereo not shown) [Example A60, N-(3-(3-fluoro-4-morpholinophenyl)-1H-indazol-5-yl)-2-(pyrrolidin-1-yl)-2-(thiophen-3-yl)acetamide] | 100 to 500 nM | – | < 50 nM
17 | CN1CCC(Oc2ccc(-c3n[nH]c4ccc(NC(=O)C(c5ccsc5)N5CCCC5)cc34)cc2Cl)CC1 (stereo not shown) [Example A57] | 100 to 500 nM | – | < 50 nM
18 | O=C(Nc1ccc2[nH]nc(-c3ccc(OCCCN4CCOCC4)cc3)c2c1)C(c1ccsc1)N1CCCC1 (stereo not shown) [Example A45, N-(3-(4-(3-morpholinopropoxy)phenyl)-1H-indazol-5-yl)-2-(pyrrolidin-1-yl)-2-(thiophen-3-yl)acetamide] | < 100 nM | – | < 50 nM
19 | O=C(Nc1ccc2[nH]nc(-c3ccc4c(c3)OCCO4)c2c1)C(c1ccsc1)N1CCCC1 (stereo not shown) [Example A15, N-(3-(2,3-dihydrobenzo[b][1,4]dioxin-6-yl)-1H-indazol-5-yl)-2-(pyrrolidin-1-yl)-2-(thiophen-3-yl)acetamide] | > 500 nM | – | < 50 nM
20 | CN1CCC(Oc2ccc(-c3n[nH]c4ccc(NC(=O)C(c5ccsc5)N5CCCC5)cc34)cc2)CC1 (stereo not shown) [Example A7, N-(3-(4-((1-methylpiperidin-4-yl)oxy)phenyl)-1H-indazol-5-yl)-2-(pyrrolidin-1-yl)-2-(thiophen-3-yl)acetamide] | – | – | < 50 nM
21 | O=C(Nc1ccc2[nH]nc(-c3ccc(NC4CCOCC4)cc3)c2c1)C(c1ccsc1)N1CCCC1 (stereo not shown) [Example A71, 2-(pyrrolidin-1-yl)-N-(3-(4-((tetrahydro-2H-pyran-4-yl)amino)phenyl)-1H-indazol-5-yl)-2-(thiophen-3-yl)acetamide] | < 100 nM | – | < 50 nM
22 | O=C(NC(c1ccsc1)C1CC1)c1ccc2[nH]nc(-c3ccc(N4CCC(O)CC4)cc3)c2c1 (stereo not shown) [Example A101, N-(cyclopropyl(thiophen-3-yl)methyl)-3-(4-(4-hydroxypiperidin-1-yl)phenyl)-1H-indazole-5-carboxamide] | – | – | < 50 nM
